Measurements taken from patent US6869797B2, “Method for more efficient electroporation” (Stratagene California, priority 1998, dated 2005).

Tests used:
E. coli = assay: Effect of additives added to thawed competent cells on electroporation efficiency (pCMV-Script plasmid); type: cell-based; conditions: added after thawing, colonies with additive divided by colonies without
Experimental: Specifically, galactose (an aldohexose monosaccharide), maltose (an aldohexose disaccharide), mannitol (an aldohexose alcohol), and sorbitol (an aldohexose alcohol) additives were tested.
After two hours of freezing, competent cells were thawed and amounts varying between 0.1% and 5.0% of various sugar or sugar aldoses were added to the thawed cells. 1 μl of 10 pg/μl plasmid, pCMV-Script (Stratagene #211199) in TE buffer or water (or other low-ionic strength buffer) was added to 40 μl of the treated cells in a chilled 1.5 ml Microfuge tube. The cells were gently mixed and chilled.
The DNA-cell mixture was transferred to a chilled electroporation cuvette. The cuvette was pulsed once, using a Bio-Rad II Gene Pulsar, at 1.7 kV (kilo Volts), 200 Ω and 25 μF. The cuvette was immediately removed and 960 μl of SOC medium (2 ml of 20% glucose and 1 ml of 2M Mg per 100 ml of SOB medium) was added to resuspend the cells.
That suspension was transferred to a sterile 15-ml Falcon 2059 polypropylene tube and shaken at 225-250 rpm at 37° C. for 1 hour. We pipetted 2.5 μl of transformed cells into a 100 μl pool of SOC medium on an Amp plate (Sambrook et al. 1997). The cell/media mixture was spread over the Amp plates. The plates were incubated overnight (16-20 hours) at 37° C.

XL1-Blue cells = assay: Effect of sorbitol added before freezing on electrotransformation efficiency (pUC18 plasmid); type: cell-based, E. coli; conditions: average of 6 values
Experimental: The effect of adding sugars, prior to freezing the cells, was tested for improved electroporation efficiency. Sorbitol was chosen as the first test compound.
To determine the optimal concentration of sorbitol, the above protocol was followed to produce electrocompetent bacterial cells. However, before freezing the cells, a solution of sorbitol was added such that the final concentrations of the suspension of cells varied from 0%, 1.0%, 2.0%, and 2.5%.
1 μl of 10 pg/μl plasmid, pUC18 (New England Biolabs) in TE buffer or water (or other low-ionic strength buffer), was added to 40 μl of the treated cells in a chilled 1.5 ml Microfuge tube. Transformed cells were obtained by following the above protocol. Various experiments were run to determine the efficiency of transformation. Five different preparations were tested in triplicate, and each preparation was plated in duplicate.

[1] = additive final concentration 1.0%
[2] = additive final concentration 0.75%
[3] = additive final concentration 2.0%

OC[C@H]1O[C@H](O[C@H]2[C@H](O)[C@@H](O)C(O)O[C@@H]2CO)[C@H](O)[C@@H](O)[C@@H]1O (mixture of isomers) [maltose]
Relative efficiency (E. coli; [1]): 1.50 | Relative efficiency (E. coli; additive final concentration 2.5%): 3.00 | Relative efficiency (E. coli; additive final concentration 3.0%): 1.30 | Relative efficiency (E. coli; additive final concentration 4.0%): 1.50

OC[C@@H](O)[C@@H](O)[C@H](O)[C@@H](O)CO [sorbitol]
Relative efficiency (E. coli; [2]): 2.20 | Relative efficiency (E. coli; [1]): 2.80 | Relative efficiency (E. coli; additive final concentration 1.50%): 3.10 | Relative efficiency (E. coli; [3]): 1.50 | Efficiency (cfu/ug pUC18) (XL1-Blue cells; Experiment #1, 2.0% sorbitol added before freezing): 1.2 × 10^10 cfu/ug pUC18 | Efficiency (cfu/ug pUC18) (XL1-Blue cells; Experiment #1, 2.5% sorbitol added before freezing): 1.6 × 10^10 cfu/ug pUC18 | Efficiency (cfu/ug pUC18) (XL1-Blue cells; Experiment #2, 1.0% sorbitol added before freezing): 1.23 × 10^10 cfu/ug pUC18 | Efficiency (cfu/ug pUC18) (XL1-Blue cells; Experiment #2, 2.0% sorbitol added before freezing): 1.66 × 10^10 cfu/ug pUC18 | Efficiency (cfu/ug pUC18) (XL1-Blue cells; Experiment #2, 2.5% sorbitol added before freezing): 1.48 × 10^10 cfu/ug pUC18 | Efficiency (cfu/ug pUC18) (XL1-Blue cells; Experiment #3, 1.0% sorbitol added before freezing): 1.03 × 10^10 cfu/ug pUC18 | Efficiency (cfu/ug pUC18) (XL1-Blue cells; Experiment #3, 2.0% sorbitol added before freezing): 1.23 × 10^10 cfu/ug pUC18 | Efficiency (cfu/ug pUC18) (XL1-Blue cells; Experiment #3, 2.5% sorbitol added before freezing): 1.33 × 10^10 cfu/ug pUC18 | Efficiency (cfu/ug pUC18) (XL1-Blue cells; Experiment #4, 2.0% sorbitol added before freezing): 1.29 × 10^10 cfu/ug pUC18 | Efficiency (cfu/ug pUC18) (XL1-Blue cells; Experiment #4, 2.5% sorbitol added before freezing): 1.39 × 10^10 cfu/ug pUC18 | Efficiency (cfu/ug pUC18) (XL1-Blue cells; Experiment #5, 2.0% sorbitol added before freezing): 1.60 × 10^10 cfu/ug pUC18 | Efficiency (cfu/ug pUC18) (XL1-Blue cells; Experiment #5, 2.5% sorbitol added before freezing): 1.60 × 10^10 cfu/ug pUC18

OC[C@@H](O)[C@@H](O)[C@H](O)[C@H](O)CO [mannitol]
Relative efficiency (E. coli; [2]): 3.00 | Relative efficiency (E. coli; [1]): 2.80 | Relative efficiency (E. coli; additive final concentration 1.25%): 3.30 | Relative efficiency (E. coli; [3]): 2.90 | Relative efficiency (E. coli; additive final concentration 2.20%): 2.80 | Relative efficiency (E. coli; additive final concentration 2.40%): 1.90

O=C[C@H](O)[C@@H](O)[C@@H](O)[C@H](O)CO [galactose]
Relative efficiency (E. coli; additive final concentration 0.5%): 2.20 | Relative efficiency (E. coli; [1]): 1.50 | Relative efficiency (E. coli; [3]): 2.40
